Assay: xn = mol fraction of the nth substance listed
Settings: 101 kPa

Compound `CCCCCCCC[n+]1ccc2ccccc2c1.O=S(=O)([N-]S(=O)(=O)C(F)(F)F)C(F)(F)F` + c1ccncc1 has a viscosity (298.15 K, x2 = 0) of 369 mPa·s, a viscosity (298.15 K, x2 = 0.0945) of 292 mPa·s and a viscosity (298.15 K, x2 = 0.1869) of 205 mPa·s. For the same compound, the viscosity (298.15 K, x2 = 0.2762) was 141.5 mPa·s, the viscosity (298.15 K, x2 = 0.3675) was 89.1 mPa·s and the viscosity (298.15 K, x2 = 0.4584) was 56.5 mPa·s. It also gave a viscosity (298.15 K, x2 = 0.5383) of 42.09 mPa·s, a viscosity (298.15 K, x2 = 0.637) of 19.55 mPa·s and a viscosity (298.15 K, x2 = 0.7274) of 10.36 mPa·s. The viscosity (298.15 K, x2 = 0.8199) was 6.68 mPa·s, the viscosity (298.15 K, x2 = 0.9064) was 3.11 mPa·s and the viscosity (308.15 K, x2 = 0) was 191 mPa·s. For the same compound, the viscosity (308.15 K, x2 = 0.1869) was 113.6 mPa·s, the viscosity (308.15 K, x2 = 0.2762) was 81.4 mPa·s and the viscosity (308.15 K, x2 = 0.3675) was 53.9 mPa·s. For the same compound, the viscosity (308.15 K, x2 = 0.4584) was 35.87 mPa·s, the viscosity (308.15 K, x2 = 0.5383) was 27.64 mPa·s and the viscosity (308.15 K, x2 = 0.637) was 13.92 mPa·s. For the same compound, the viscosity (308.15 K, x2 = 0.7274) was 7.76 mPa·s, the viscosity (308.15 K, x2 = 0.9064) was 2.6 mPa·s and the viscosity (328.15 K, x2 = 0.0945) was 57 mPa·s. It also gave a viscosity (328.15 K, x2 = 0.1869) of 44.5 mPa·s, a viscosity (328.15 K, x2 = 0.2762) of 34.07 mPa·s and a viscosity (328.15 K, x2 = 0.3675) of 24.08 mPa·s. The viscosity (328.15 K, x2 = 0.4584) was 17.33 mPa·s, the viscosity (328.15 K, x2 = 0.5383) was 14.12 mPa·s and the viscosity (328.15 K, x2 = 0.637) was 8.02 mPa·s. The viscosity (328.15 K, x2 = 0.8199) was 3.64 mPa·s, the viscosity (328.15 K, x2 = 0.9064) was 1.92 mPa·s and the viscosity (338.15 K, x2 = 0) was 44.8 mPa·s. For the same compound, the viscosity (338.15 K, x2 = 0.1869) was 30.56 mPa·s, the viscosity (338.15 K, x2 = 0.2762) was 23.96 mPa·s and the viscosity (338.15 K, x2 = 0.3675) was 17.44 mPa·s. The viscosity (338.15 K, x2 = 0.4584) was 12.94 mPa·s, the viscosity (338.15 K, x2 = 0.637) was 6.34 mPa·s and the viscosity (338.15 K, x2 = 0.7274) was 3.95 mPa·s. The viscosity (338.15 K, x2 = 0.9064) was 1.68 mPa·s, the viscosity (348.15 K, x2 = 0) was 31.62 mPa·s and the viscosity (348.15 K, x2 = 0.1869) was 21.19 mPa·s. It also gave a viscosity (348.15 K, x2 = 0.2762) of 17.53 mPa·s, a viscosity (348.15 K, x2 = 0.3675) of 13.12 mPa·s and a viscosity (348.15 K, x2 = 0.4584) of 10.01 mPa·s. The viscosity (348.15 K, x2 = 0.5383) was 8.48 mPa·s, the viscosity (348.15 K, x2 = 0.637) was 5.11 mPa·s and the viscosity (348.15 K, x2 = 0.7274) was 3.3 mPa·s. It also gave a viscosity (348.15 K, x2 = 0.8199) of 2.67 mPa·s and a viscosity (348.15 K, x2 = 0.9064) of 1.49 mPa·s.

Work on `CCCCCCCC[n+]1ccc2ccccc2c1.O=S(=O)([N-]S(=O)(=O)C(F)(F)F)C(F)(F)F` + c1ccsc1 yielded a viscosity (298.15 K, x2 = 0) of 369 mPa·s, a viscosity (298.15 K, x2 = 0.0964) of 300 mPa·s and a viscosity (298.15 K, x2 = 0.1907) of 215 mPa·s. It also gave a viscosity (298.15 K, x2 = 0.2739) of 155.2 mPa·s, a viscosity (298.15 K, x2 = 0.3572) of 112.1 mPa·s and a viscosity (298.15 K, x2 = 0.4456) of 72.5 mPa·s. It also gave a viscosity (298.15 K, x2 = 0.6385) of 23.26 mPa·s, a viscosity (298.15 K, x2 = 0.7244) of 12.82 mPa·s and a viscosity (298.15 K, x2 = 0.8627) of 5.27 mPa·s. For the same compound, the viscosity (298.15 K, x2 = 0.9065) was 3.34 mPa·s, the viscosity (298.15 K, x2 = 0.935) was 2.38 mPa·s and the viscosity (308.15 K, x2 = 0) was 191 mPa·s. The viscosity (308.15 K, x2 = 0.1907) was 118 mPa·s, the viscosity (308.15 K, x2 = 0.2739) was 88.3 mPa·s and the viscosity (308.15 K, x2 = 0.3572) was 66.1 mPa·s. The viscosity (308.15 K, x2 = 0.4456) was 44.61 mPa·s, the viscosity (308.15 K, x2 = 0.7244) was 9.45 mPa·s and the viscosity (308.15 K, x2 = 0.8627) was 4.26 mPa·s. For the same compound, the viscosity (308.15 K, x2 = 0.935) was 2.01 mPa·s, the viscosity (318.15 K, x2 = 0.1907) was 70.9 mPa·s and the viscosity (318.15 K, x2 = 0.3572) was 42.17 mPa·s. The viscosity (318.15 K, x2 = 0.4456) was 29.44 mPa·s, the viscosity (318.15 K, x2 = 0.542) was 19.21 mPa·s and the viscosity (318.15 K, x2 = 0.6385) was 11.79 mPa·s. It also gave a viscosity (318.15 K, x2 = 0.7244) of 7.2 mPa·s, a viscosity (318.15 K, x2 = 0.821) of 4.88 mPa·s and a viscosity (318.15 K, x2 = 0.8627) of 3.53 mPa·s. It also gave a viscosity (318.15 K, x2 = 0.935) of 1.73 mPa·s, a viscosity (328.15 K, x2 = 0) of 67.9 mPa·s and a viscosity (328.15 K, x2 = 0.0964) of 57.9 mPa·s. For the same compound, the viscosity (328.15 K, x2 = 0.1907) was 45.7 mPa·s, the viscosity (328.15 K, x2 = 0.2739) was 36.23 mPa·s and the viscosity (328.15 K, x2 = 0.3572) was 28.66 mPa·s. It also gave a viscosity (328.15 K, x2 = 0.4456) of 20.52 mPa·s, a viscosity (328.15 K, x2 = 0.542) of 13.96 mPa·s and a viscosity (328.15 K, x2 = 0.6385) of 8.96 mPa·s. It also gave a viscosity (328.15 K, x2 = 0.7244) of 5.63 mPa·s, a viscosity (328.15 K, x2 = 0.821) of 4.03 mPa·s and a viscosity (328.15 K, x2 = 0.8627) of 2.98 mPa·s. It also gave a viscosity (328.15 K, x2 = 0.9065) of 2.04 mPa·s, a viscosity (328.15 K, x2 = 0.935) of 1.51 mPa·s and a viscosity (338.15 K, x2 = 0) of 44.8 mPa·s. For the same compound, the viscosity (338.15 K, x2 = 0.0964) was 38.71 mPa·s, the viscosity (338.15 K, x2 = 0.1907) was 33.3 mPa·s and the viscosity (338.15 K, x2 = 0.2739) was 25.31 mPa·s. It also gave a viscosity (338.15 K, x2 = 0.4456) of 14.97 mPa·s, a viscosity (338.15 K, x2 = 0.542) of 10.53 mPa·s and a viscosity (338.15 K, x2 = 0.6385) of 6.98 mPa·s. The viscosity (338.15 K, x2 = 0.7244) was 4.53 mPa·s, the viscosity (338.15 K, x2 = 0.821) was 3.4 mPa·s and the viscosity (338.15 K, x2 = 0.8627) was 2.55 mPa·s. It also gave a viscosity (338.15 K, x2 = 0.9065) of 1.78 mPa·s, a viscosity (338.15 K, x2 = 0.935) of 1.34 mPa·s and a viscosity (348.15 K, x2 = 0) of 31.62 mPa·s. For the same compound, the viscosity (348.15 K, x2 = 0.0964) was 27.2 mPa·s, the viscosity (348.15 K, x2 = 0.1907) was 22.4 mPa·s and the viscosity (348.15 K, x2 = 0.2739) was 18.35 mPa·s. For the same compound, the viscosity (348.15 K, x2 = 0.3572) was 15.04 mPa·s, the viscosity (348.15 K, x2 = 0.542) was 8.22 mPa·s and the viscosity (348.15 K, x2 = 0.6385) was 5.57 mPa·s. The viscosity (348.15 K, x2 = 0.7244) was 3.73 mPa·s, the viscosity (348.15 K, x2 = 0.821) was 2.91 mPa·s and the viscosity (348.15 K, x2 = 0.8627) was 2.22 mPa·s. It also gave a viscosity (348.15 K, x2 = 0.9065) of 1.57 mPa·s and a viscosity (348.15 K, x2 = 0.935) of 1.25 mPa·s.
